Reference: PubChem BioAssay (NCI)
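These data come from cells grown in 96-well plates and exposed to compound for 48 hours at five concentrations. GI50: concentration for 50% inhibition of growth. TGI marks complete inhibition of growth.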

Tests used:
Assay in all cases: growth of human tumour cells (NCI), 48 h
HOP-62 NSCLC = tested on: HOP-62 NSCLC
OVCAR-4 ovarian = tested on: OVCAR-4 ovarian
RPMI-8226 leukemia = tested on: RPMI-8226 leukemia
NCI/ADR-RES ovarian = tested on: NCI/ADR-RES ovarian
MOLT-4 leukemia = tested on: MOLT-4 leukemia
HOP-92 NSCLC = tested on: HOP-92 NSCLC
KM12 colon = tested on: KM12 colon
NCI-H226 lung = tested on: NCI-H226 lung
OVCAR-3 ovarian = tested on: OVCAR-3 ovarian
SN12C renal = tested on: SN12C renal
K-562 leukemia = tested on: K-562 leukemia
SNB-75 CNS = tested on: SNB-75 CNS
MDA-MB-435 = tested on: MDA-MB-435
NCI-H23 lung = tested on: NCI-H23 lung
HCT-15 colon = tested on: HCT-15 colon
MCF7 breast = tested on: MCF7 breast
SK-MEL-28 melanoma = tested on: SK-MEL-28 melanoma
TK-10 renal = tested on: TK-10 renal
M14 melanoma = tested on: M14 melanoma
SNB-19 CNS = tested on: SNB-19 CNS
SK-OV-3 ovarian = tested on: SK-OV-3 ovarian
A549 NSCLC = tested on: A549 NSCLC
SK-MEL-2 melanoma = tested on: SK-MEL-2 melanoma
T-47D breast = tested on: T-47D breast
DU-145 prostate = tested on: DU-145 prostate
SF-539 CNS = tested on: SF-539 CNS
RXF 393 renal = tested on: RXF 393 renal
EKVX NSCLC = tested on: EKVX NSCLC
IGROV1 ovarian = tested on: IGROV1 ovarian
LOX IMVI melanoma = tested on: LOX IMVI melanoma
UACC-257 melanoma = tested on: UACC-257 melanoma
COLO 205 colon = tested on: COLO 205 colon
OVCAR-5 ovarian = tested on: OVCAR-5 ovarian
SK-MEL-5 melanoma = tested on: SK-MEL-5 melanoma
SF-295 CNS = tested on: SF-295 CNS
NCI-H522 lung = tested on: NCI-H522 lung
HCT-116 colon = tested on: HCT-116 colon
PC-3 prostate = tested on: PC-3 prostate
CCRF-CEM leukemia = tested on: CCRF-CEM leukemia
SF-268 CNS = tested on: SF-268 CNS
HL-60(TB) leukemia = tested on: HL-60(TB) leukemia
HCC-2998 colon = tested on: HCC-2998 colon
BT-549 breast = tested on: BT-549 breast
UACC-62 melanoma = tested on: UACC-62 melanoma
CAKI-1 renal = tested on: CAKI-1 renal
SW-620 colon = tested on: SW-620 colon
UO-31 renal = tested on: UO-31 renal
MALME-3M melanoma = tested on: MALME-3M melanoma
HS 578T breast = tested on: HS 578T breast
786-0 renal = tested on: 786-0 renal
MDA-MB-231 breast = tested on: MDA-MB-231 breast

c1cnc2[nH]cc(-c3csc(-c4cn(CCCCN5CCOCC5)c5ccccc45)n3)c2c1
GI50 (HOP-62 NSCLC): 1700 nM | TGI (HOP-62 NSCLC): 3700 nM | GI50 (OVCAR-4 ovarian): 2060 nM | TGI (OVCAR-4 ovarian): 5690 nM | GI50 (RPMI-8226 leukemia): 1830 nM | TGI (RPMI-8226 leukemia): 4290 nM | GI50 (NCI/ADR-RES ovarian): 2040 nM | TGI (NCI/ADR-RES ovarian): 4710 nM | GI50 (MOLT-4 leukemia): 1820 nM | TGI (MOLT-4 leukemia): 3670 nM | GI50 (HOP-92 NSCLC): 1430 nM | TGI (HOP-92 NSCLC): 3130 nM | GI50 (KM12 colon): 1720 nM | TGI (KM12 colon): 3340 nM | GI50 (NCI-H226 lung): 2290 nM | TGI (NCI-H226 lung): 8230 nM | GI50 (OVCAR-3 ovarian): 1640 nM | TGI (OVCAR-3 ovarian): 3170 nM | GI50 (SN12C renal): 2980 nM | TGI (SN12C renal): 10800 nM | GI50 (K-562 leukemia): 2020 nM | TGI (K-562 leukemia): 3930 nM | GI50 (SNB-75 CNS): 1190 nM | TGI (SNB-75 CNS): 2540 nM | GI50 (MDA-MB-435): 1720 nM | TGI (MDA-MB-435): 3200 nM | GI50 (NCI-H23 lung): 2040 nM | TGI (NCI-H23 lung): 4490 nM | GI50 (HCT-15 colon): 1810 nM | TGI (HCT-15 colon): 3510 nM | GI50 (MCF7 breast): 1560 nM | TGI (MCF7 breast): 3570 nM | GI50 (SK-MEL-28 melanoma): 1810 nM | TGI (SK-MEL-28 melanoma): 3300 nM | GI50 (TK-10 renal): 2770 nM | TGI (TK-10 renal): 7240 nM | GI50 (M14 melanoma): 1780 nM | TGI (M14 melanoma): 3620 nM | GI50 (SNB-19 CNS): 1760 nM | TGI (SNB-19 CNS): 3490 nM | GI50 (SK-OV-3 ovarian): 2340 nM | TGI (SK-OV-3 ovarian): 5740 nM | GI50 (A549 NSCLC): 1890 nM | TGI (A549 NSCLC): 4130 nM | GI50 (SK-MEL-2 melanoma): 1940 nM | TGI (SK-MEL-2 melanoma): 3870 nM | GI50 (T-47D breast): 1330 nM | TGI (T-47D breast): 3900 nM | GI50 (DU-145 prostate): 2120 nM | TGI (DU-145 prostate): 4280 nM | GI50 (SF-539 CNS): 1710 nM | TGI (SF-539 CNS): 3130 nM | GI50 (RXF 393 renal): 1670 nM | TGI (RXF 393 renal): 3310 nM | GI50 (EKVX NSCLC): 2070 nM | TGI (EKVX NSCLC): 4740 nM | GI50 (IGROV1 ovarian): 1430 nM | TGI (IGROV1 ovarian): 4250 nM | GI50 (LOX IMVI melanoma): 1740 nM | TGI (LOX IMVI melanoma): 3260 nM | GI50 (UACC-257 melanoma): 1840 nM | TGI (UACC-257 melanoma): 3530 nM | GI50 (COLO 205 colon): 1730 nM | TGI (COLO 205 colon): 3510 nM | GI50 (OVCAR-5 ovarian): 1820 nM | TGI (OVCAR-5 ovarian): 3450 nM | GI50 (SK-MEL-5 melanoma): 1730 nM | TGI (SK-MEL-5 melanoma): 3160 nM | GI50 (SF-295 CNS): 1920 nM | TGI (SF-295 CNS): 4040 nM | GI50 (NCI-H522 lung): 1950 nM | TGI (NCI-H522 lung): 3770 nM | GI50 (HCT-116 colon): 1650 nM | TGI (HCT-116 colon): 3050 nM | GI50 (PC-3 prostate): 1590 nM | TGI (PC-3 prostate): 4010 nM | GI50 (CCRF-CEM leukemia): 1980 nM | TGI (CCRF-CEM leukemia): 4030 nM | GI50 (SF-268 CNS): 1760 nM | TGI (SF-268 CNS): 3710 nM | GI50 (HL-60(TB) leukemia): 1960 nM | TGI (HL-60(TB) leukemia): 3920 nM | GI50 (HCC-2998 colon): 1740 nM | TGI (HCC-2998 colon): 3260 nM | GI50 (BT-549 breast): 2130 nM | TGI (BT-549 breast): 5190 nM | GI50 (UACC-62 melanoma): 1790 nM | TGI (UACC-62 melanoma): 3800 nM | GI50 (CAKI-1 renal): 1740 nM | TGI (CAKI-1 renal): 3520 nM | GI50 (SW-620 colon): 1770 nM | TGI (SW-620 colon): 3540 nM | GI50 (UO-31 renal): 1150 nM | TGI (UO-31 renal): 2530 nM | GI50 (MALME-3M melanoma): 1320 nM | TGI (MALME-3M melanoma): 2960 nM | GI50 (HS 578T breast): 1770 nM | TGI (HS 578T breast): 4980 nM | GI50 (786-0 renal): 1850 nM | TGI (786-0 renal): 3330 nM | GI50 (MDA-MB-231 breast): 1580 nM | TGI (MDA-MB-231 breast): 3270 nM
